From ChEMBL document CHEMBL4406882, “The plant-derived chalcone Xanthoangelol targets the membrane of Gram-positive bacteria” (Bioorg Med Chem, 2019)
The source made the active and inactive calls. The rule behind the calls is not given here.

How the values were obtained:
Staphylococcus aureus [1] = experiment: Bactericidal activity against methicillin-resistant Staphylococcus aureus ATCC 700699 assessed as reduction in bacterial CFU at 4 times MIC measured for 30 mins; type: functional
Staphylococcus aureus [2] = experiment: Induction of membrane integrity impairment in methicillin-resistant Staphylococcus aureus ATCC 700699 at 10 uM measured for 3 hrs by PI staining based fluorescence assay; type: functional, organism-based
Staphylococcus aureus [3] = experiment: Induction of membrane integrity impairment in methicillin-resistant Staphylococcus aureus ATCC 700699 at 20 uM measured for 30 mins by DiOC2(3) probe based fluorescence assay; type: functional, organism-based
Staphylococcus aureus [4] = experiment: Antibacterial activity against mid-exponential growth phase of methicillin-resistant Staphylococcus aureus ATCC 700699 assessed as increase in cell lysis at 25 uM; type: functional, organism-based
Staphylococcus aureus [5] = experiment: Induction of membrane integrity impairment in methicillin-resistant Staphylococcus aureus ATCC 700699 at 3.125 to 12.5 uM measured for 30 mins by DiOC2(3) probe based fluorescence assay; type: functional, organism-based

SMILES | Activity (Staphylococcus aureus [1]) | Activity (Staphylococcus aureus [2]) | Activity (Staphylococcus aureus [3]) | Activity (Staphylococcus aureus [4]) | Activity (Staphylococcus aureus [5])
COc1c(N2C[C@@H]3CCCN[C@@H]3C2)c(F)cc2c(=O)c(C(=O)O)cn(C3CC3)c12 | inactive | inactive | inactive | inactive | –
N#CC(C#N)=NNc1cccc(Cl)c1 | – | – | – | – | Active
